Experimental data reported in patent US5436343A, “Alkenecarboxylic acid compounds” (Adir et Compagnie, priority 1992, dated 1995).
Where a name gives a salt, the structure may show the parent alone.

Columns and labels:
[1] = system: tracheal pressure in guinea pigs (bronchoconstriction caused by U46619); assay: IC50 on tracheal pressure in guinea pigs (U46619-induced bronchoconstriction); assay type: in vivo, guinea pig; details: Cavia porcellus, iv, 5 min; anesthetized guinea pigs; U46619 2 μg/kg i.v.; antagonist injected 5 minutes before U46619; read-out: IC50 (dose of antagonist that inhibits by 50% the increase in tracheal pressure caused by U46619)
Text: ICso on Tracheal Pressure in Guinea Pigs
Male albino guinea pigs (350-400 g) subjected to an 18-hour water diet are anesthetized with ethyl carbamate (1.25 g/kg i.p.). A catheter is introduced into the carotid artery in order to measure the arterial blood pressure by means of a pressure cell. A second catheter is introduced into the jugular vein and is used to inject the pharmacological substances. The trachea is cannulated and the guinea pig is placed in assisted respiration by means of a respirator. The animal's temperature is maintained at 37° C. using a thermostatic blanket. A needle pushed in the tracheal cannula is connected to a pressure cell and enables the tracheal pressure to be recorded.
The guinea pigs are pretreated with d-tubocurarine (1 mg/kg i.v.) and with indomethacin (10 mg/kg i.v.). When injected at a dose of 2 μg/kg i.v., U46619 causes a bronchoconstriction which leads to an increase in tracheal pressure and induces an increase in arterial blood pressure. The responses to U46619 are reversible and reproducible if the injections are carried out every 10 minutes.
The thromboxane receptor antagonists are injected 5 minutes before the injections of U46619. The dose of antagonist that inhibits by 50% the increase in tracheal pressure caused by U46619 is determined (IC50).

[2] = system: Dog platelets (aggregation induced by U46619+adrenaline); assay: Platelet aggregation in dogs (U46619 + adrenaline, PRP); assay type: cell-based; details: Canis lupus familiaris, adrenaline 10 μM then U46619 1.2 μM, 3 min preincubation, 37° C., read-out: IC50 (50% inhibition of the aggregation responses to U46619+adrenaline)
Experimental: Platelet Aggregation in Dogs
After anesthesia of the animal with pentobarbital sodium (30 mg/kg i.v.), arterial blood is withdrawn onto sodium citrate (0.109M) (1 vol. of citrate per 9 vol. of blood). Platelet-rich plasma (PRP) is obtained after centrifugation (20° C.) at 200 g for 10 minutes. The number of platelets in the PRP is 300,000 PL/mm^3 on average. The PRP is stored at the temperature of the room until the time of the test, and is used within 4 hours following withdrawal from the animal.
Dog platelets respond weakly to U46619 alone. […] The PRP is incubated at 37° C. in the presence of the test antagonist for 3 minutes. Aggregation is then obtained by the addition of adrenaline (10 μM) followed by that of U46619 (1.2 μM) 30 seconds later. The effect of the antagonists is measured, and the IC50 is determined as the concentration of the antagonist needed to produce a 50% inhibition of the aggregation responses to U46619+adrenaline.

[3] = biological target: T1, guinea pig trachea (contractions caused by U46619) (Cavia porcellus, UniProt A0A286Y4I8); assay: pA2 on guinea pig trachea (U46619-induced contraction); assay type: cell-based; details: guinea pig tracheal rings; U46619 10^-9 M to 10^-5 M; antagonist contact 20 minutes
T1 sequence (A0A286Y4I8 1-347): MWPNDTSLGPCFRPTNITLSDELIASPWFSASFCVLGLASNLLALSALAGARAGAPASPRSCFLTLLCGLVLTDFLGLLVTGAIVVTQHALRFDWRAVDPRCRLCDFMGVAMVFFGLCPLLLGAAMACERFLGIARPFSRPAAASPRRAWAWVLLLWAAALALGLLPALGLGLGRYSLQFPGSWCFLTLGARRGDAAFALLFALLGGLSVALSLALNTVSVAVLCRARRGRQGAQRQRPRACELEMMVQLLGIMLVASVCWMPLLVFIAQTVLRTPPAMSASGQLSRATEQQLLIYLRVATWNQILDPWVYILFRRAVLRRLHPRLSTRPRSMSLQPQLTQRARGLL

[4] = system: platelets (aggregation induced by U46619); assay: Platelet aggregation in man (U46619-induced, PRP); assay type: cell-based; details: human PRP, procedure of Example 22 (U46619 1.2 μM), read-out: IC50 (50% inhibition of platelet aggregation induced by U46619)
Experimental: (§1) Platelet aggregation is carried out at 37° C. in siliconed glass tubes using an aggregometer. The PRP and the PL are stirred at 1000 rpm (revolutions per minute). In order to study the activity of thromboxane antagonists, the PRP is incubated for 1 min at 37° C., and the antagonist is then added for a period of 3 min before addition of the agonist U46619 (1.2 μM). The final volume in the measuring cell is then 250 μl. The intensity of platelet aggregation is established by taking the maximum amplitude of aggregation plots and is expressed as a percentage light transmission (% T). The activity of the antagonists is expressed as IC50, that is to say the concentration of the substance which induces a 50% inhibition of the aggregation response induced by U46619.
Platelet Aggregation in Man
Venous blood is obtained from human volunteers who have not taken aspirin for at least 14 days prior to the experiment. The blood is withdrawn onto sodium citrate (0.109M) (1 vol. of citrate to 9 vol. of blood). Platelet-rich plasma (PRP) is obtained after centrifugation (20° C.) at 200 g for 10 minutes. The number of platelets is 250,000 PL/mm^3 on average. The PRP is stored at the temperature of the room until the time of the test, and is used within 2 hours following withdrawal from the subject. The antagonists are tested according to the procedure described in Example 22.

[5] = system: platelets (aggregation induced by U46619, a TXA2 receptor agonist); assay: Platelet aggregation in rabbits (U46619-induced, PRP); assay type: cell-based; details: Oryctolagus cuniculus, 0.05 h, rabbit PRP, U46619 1.2 μM, antagonist 3 min before agonist, 37° C., read-out: IC50 (50% inhibition of the aggregation response induced by U46619)
Experimental: Platelet Aggregation in Rabbits
Rabbits (2-3 kg) are anesthetized with pentobarbital sodium (30 mg/kg i.v.). After cannulation of the left carotid artery, blood is withdrawn onto sodium citrate (0.109M) (1 vol. of citrate per 9 vol. of blood). Platelet-rich plasma (PRP) is obtained by centrifugation (20° C.) at 250 g for 20 minutes, and platelet-poor plasma (PPP) by centrifugation at 1000 g (10 min). The number of platelets (PL) in the PRP is adjusted to 300-350,000 PL/mm^3 by dilution with autologous PPP. The PRP is stored at the temperature of the room until the time of the test, and is used within 4 hours following withdrawal from the animal.
as §1, with “The activity of the antagonists is expressed as IC50, that is to say the concentration of the substance which induces a 50% inhibition of the aggregation response induced by U46619.” left out

Row | SMILES | ED50 [1] | IC50 [2] | Kb [3] | IC50 [4] | IC50 [5]
1 | O=C(O)CCC/C=C\CC1(CCNS(=O)(=O)c2ccc(Cl)cc2)CCCCC1 [Example 1, (5Z)-10-[(4-Chlorophenyl)sulfonamido]-8,8-pentamethylene-5-decenoic acid sodium salt] | 0.027 mg/kg | 140 nM | 0.398 nM |  | 
2 | O=C(O)CC/C=C\CC1(CCNS(=O)(=O)c2ccc(Cl)cc2)CCCCC1 [Example 2, (4Z ) -9-[(4-Chlorophenyl)sulfonamido]-7 , 7-pentamethylene-4-nonenoic acid sodium salt] | 0.12 mg/kg | 120 nM | 3.98 nM | 200 nM | 200 nM
3 | O=C(O)CC/C=C\CC1(CCNS(=O)(=O)c2ccc(Cl)cc2)CCCC1 [Example 3, (4Z)-9-[(4-Chlorophenyl)sulfonamido]-7,7-tetramethylene-4-nonenoic acid sodium salt] | 0.019 mg/kg | 60 nM | 0.501 nM | 80 nM | 
4 | Cc1ccc(S(=O)(=O)NCCC2(C/C=C\CCCC(=O)O)CCCCC2)cc1 [Example 4, (5Z)-10-[(4-Methylphenyl)sulfonamido]-8,8-pentamethylene-5-decenoic acid sodium salt] | 0.105 mg/kg | 200 nM | 3.16 nM |  | 
5 | O=C(O)CCC/C=C\CC1(CCNS(=O)(=O)c2ccc(Br)cc2)CCCCC1 [Example 5, (5Z)-10-[(4-Bromophenyl)sulfonamido]-8,8-pentamethylene-5-decenoic acid sodium salt] | 0.066 mg/kg | 140 nM | 6.31 nM |  | 
6 | O=C(O)CC/C=C\CC1(CNS(=O)(=O)c2ccc(Cl)cc2)CCCC1 [Example 6, (4Z) -8-[(4-Chlorophenyl)sulfonamido]-7,7-tetramethylene-4-octenoic acid sodium salt] | 0.021 mg/kg |  | 0.724 nM | 80 nM | 200 nM
7 | O=C(O)CC/C=C\CC1(CNS(=O)(=O)c2ccc(Cl)cc2)CCCCC1 [Example 7, (4Z)-8-[(4-Chlorophenyl)sulfonamido]-7,7-pentamethylene-4-octenoic acid sodium salt] | 0.02 mg/kg |  | 0.398 nM | 300 nM | 
8 | O=C(O)CCC/C=C\CC1(CNS(=O)(=O)c2ccc(Cl)cc2)CCCC1 [Example 8, (5Z )-9-[(4-Chlorophenyl)sulfonamido]-8,8-tetramethylene-5-nonenoic acid sodium salt] | 0.007 mg/kg |  | 0.234 nM | 300 nM | 
9 | O=C(O)CC/C=C\CCC1(CNS(=O)(=O)c2ccc(Cl)cc2)CCCC1 [Example 9, (4Z)-9-[(4-Chlorophenyl)sulfonamido]-8,8-tetramethylene-4-nonenoic acid sodium salt] | 0.011 mg/kg |  | 0.832 nM | 200 nM | 
10 | O=C(O)CC/C=C\CCC1(NS(=O)(=O)c2ccc(Cl)cc2)CCCC1 [Example 10, (4Z)-8-[(4-Chlorophenyl)sulfonamido]-8,8-tetramethylene-4-octenoic acid sodium salt] |  |  | 22.4 nM |  | 
11 | O=C(O)CCC/C=C\CCC1(NS(=O)(=O)c2ccc(Cl)cc2)CCCC1 [Example 11, (5Z)-9-[(4-Chlorophenyl)sulfonamido]-9,9-tetramethylene-5-nonenoic acid sodium salt] |  |  | 20 nM |  | 
12 | O=C(O)CCC/C=C\CC1(CCNS(=O)(=O)c2ccc(Cl)cc2)CCCC1 [Example 12, (5Z)-10-[(4-Chlorophenyl)sulfonamido]-8,8-tetramethylene-5-decenoic acid sodium salt] | 0.009 mg/kg | 150 nM | 1.05 nM | 500 nM | 
13 | O=C(O)CC/C=C\CCC1(CCNS(=O)(=O)c2ccc(Cl)cc2)CCCC1 [Example 14, (4Z )-10-[(4-Chlorophenyl)sulfonamido]-8,8-tetramethylene-4-decenoic acid sodium salt] |  |  |  | 800 nM | 
14 | O=C(O)CC/C=C\CC1(CCNS(=O)(=O)c2ccc(Cl)cc2)CCc2ccccc21 (stereo not drawn) [sodium salt] |  |  | 3.98 nM |  | 
